Consider two molecules from paper PMC7311426, “An amphipathic peptide with antibiotic activity against multidrug-resistant Gram-negative bacteria” (Nature Communications, 2020).

Converted amounts (≈) assume the structure as drawn. Where two headings read alike, the source gives them in different places.

Common to all, as to test: microbe, parasite or virus in culture
The subject of one assay is P. aeruginosa. The following applies: Pseudomonas aeruginosa, mode of 6 replicates. Put shortly: (§1)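 Broth microdilution in MHB, 2-fold 12-point series from 128 or 64 down to 0.06 or 0.03 μg mL^−1, 5 × 10^5 CFU mL^−1. Extra runs in CAMHB per CLSI and in MHB with 1% agarose; n ≥ 6.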
For a further assay, the system named is K. pneumoniae. The settings on record: Klebsiella pneumoniae. Put shortly:
as §1

In another assay the test system is S. aureus. Put shortly:
as §1

A further assay concerns A. baumannii. The settings on record: Acinetobacter baumannii, ATCC19636, read-out: BMD MIC, A. baumannii ATCC 19636 type strain; MHB; mode of 6 replicates. Put shortly:
as §1

The test system of another assay is S. enterica Typhi. The settings on record: Salmonella enterica, ATCC14028 / TYPHI, read-out: BMD MIC. The method, boiled down: as §1
In the next assay the test system is E. coli. The settings on record: Escherichia coli. Put shortly:
as §1

The mark [1] stands for this setting: BAA2146, read-out: BMD MIC, K. pneumoniae BAA-2146, MDR, ESBL, NDM-1 pos, MHB, mode of 6 replicates.

In the case of `COc1cc(Cc2cnc(N)nc2N)cc(OC)c1OC` [Trimethoprim], the MIC in the assay with P. aeruginosa (read-out: BMD MIC, P. aeruginosa FADDI-070, MDR, PmxR, MHB/CAMHB) is 64 mg/L (≈ 220 µM); in the assay with K. pneumoniae (ATCC13883, read-out: BMD MIC) it was 1 mg/L (≈ 3.44 µM); with K. pneumoniae (ATCC700603, read-out: BMD MIC, K. pneumoniae ATCC 700603 (K6), MDR, OXA-2/SHV-18, MHB, mode of 6 replicates), 4 mg/L (≈ 13.8 µM); with K. pneumoniae (setting [1]), above 64 mg/L; with S. aureus (Staphylococcus aureus, ATCC25923 / MSSA, read-out: BMD MIC), 2 mg/L (≈ 6.89 µM); with A. baumannii, 16 mg/L (≈ 55.1 µM). For the same molecule, the “BMD MIC” value in the assay with S. aureus (S. aureus ATCC 25923 MSSA, CAMHB, mode of 6 replicates) is 2 mg/L.

As to `O=C(O)c1cn(C2CC2)c2cc(N3CCNCC3)c(F)cc2c1=O` [Ciprofloxacin, ciprofloxacin], the MIC in the assay on P. aeruginosa (ATCC27853, read-out: BMD MIC, P. aeruginosa ATCC 27853 control strain, CAMHB) was at most 0.25 mg/L; with P. aeruginosa (ATCC27853, read-out: BMD MIC, P. aeruginosa ATCC 27853 control strain, MHB), 0.5 mg/L (≈ 1.51 µM); with K. pneumoniae (ATCC13883, read-out: BMD MIC, K. pneumoniae ATCC 13883 type strain (polymyxin/colistin heteroresistant), MHB, mode of 6 replicates), at most 0.25 mg/L; in the assay on K. pneumoniae (setting [1]), above 64 mg/L; in the assay with S. enterica Typhi, 0.004 mg/L (≈ 0.0121 µM); in the assay with E. coli (ATCC25922, read-out: BMD MIC, E. coli ATCC 25922 FDA control strain, CAMHB, mode of 6 replicates), at most 0.25 mg/L. Further, the MIC was at most 0.25 mg/L in the assay on E. coli (ATCC25922, read-out: BMD MIC, E. coli ATCC 25922 FDA control strain, MHB, mode of 6 independent biological replicates); at most 0.25 mg/L in the assay on E. coli (ATCC700926 / MG1655, read-out: BMD MIC); at most 0.25 mg/L with E. coli (ATCC700928, read-out: BMD MIC, E. coli ATCC 700928 CFT073 UPEC, CAMHB, mode of 6 replicates); at most 0.25 mg/L in the assay with E. coli (read-out: BMD MIC).
